Assay results published in a melting point compilation (Tetko et al.; mined from patent text by program, amines drawn as free bases though some values may be those of a salt).

| melting point | Compound |
| --- | --- |
| 216 to 218 °C | Cc1ccc(-c2ccnc3c(C(=O)c4cccs4)cnn23)cc1NC(=O)c1ccccc1 |
| 122 to 125 °C | CCOC(=O)c1ccc(C(Cc2ccc(F)cc2)C(=O)Nc2nc3ccccc3o2)cc1 (centres undefined) |
| 178 to 180 °C | CC(C)(C)OC(=O)N1CCC(n2nnc(-c3cnc(-c4ccccc4)nc3)n2)CC1 |
| 134 to 136 °C | O=C(O)CCCC(=O)c1ccc(O)c(CCC(=O)O)n1 |
| 209 to 210 °C | CCc1c(S(=O)(=O)c2ccc(=O)[nH]n2)oc2ccc(Cl)cc12 |
| 118 to 122 °C | O=C1OC(c2ccccc2)N=C1CCCCNC(=O)c1ccccc1 (centres undefined) |
| 110 to 113 °C | Cc1n[nH]c2ccccc12 |
| 107 to 111 °C | CCOC(=O)c1nccn1Cc1ccccc1[N+](=O)[O-] |
| 96 to 98 °C | O=C(O)C(=O)c1ccc(OCCOC2CCCCC2)cc1 |
| 106 to 107 °C | Cc1nc(CCOc2ccc(N)cc2)oc1-c1ccccc1 |
| 172 to 175 °C | Cc1nc2c(N)nc3ccccc3c2n1CCOCCNS(=O)(=O)C(C)C |
| 176 to 179 °C | Nc1ccc(C(=O)N2CCCCc3sccc32)c(Cl)c1 |
| 124 to 127 °C | CC(=O)Nc1ccccc1C(=O)N1CC2CC2(c2ccccc2)C1 (centres undefined) |
| 81.5 to 82.5 °C | COc1ccc(-c2nnsc2-c2ccccc2)cc1 |
| 187 to 189 °C | COC(=O)n1cc(C=O)c(-c2ccc([N+](=O)[O-])o2)n1 |
| 74 to 75 °C | CC(=O)Oc1ccc(C2(c3ccc(OC(C)=O)cc3)C(c3ccccc3)C2(Cl)Cl)cc1 (centres undefined) |
| 180 to 181 °C | CCCCc1nc2cnc3ccccc3c2n1CC1(O)CCOCC1 |
| 70 to 71 °C | CSC[C@@H](NC(=O)OCc1ccccc1)[C@@H]1COC(C)(C)O1 |
| 224 to 226 °C | Cn1cc(-c2cnc3[nH]c(=O)n(CC4CCOCC4)c3n2)cn1 |
| 139 to 141 °C | CC(=O)c1ccc(CCCCCCOc2ccc(C(=O)c3cccc(C(=O)O)c3)cc2CCC(=O)O)cc1 |
| 154 to 156 °C | CCS(=O)(=O)Oc1cn(C)c2cc(F)ccc2c1=O |
| 204 to 205 °C | O=C(O)CCc1oc(-n2ncc3ccccc32)nc1-c1ccc(Cl)cc1 |

| melting point | Compound |
| --- | --- |
| 201 °C | Cc1cc(Nc2ccnc(Nc3ccc(S(=O)(=O)N4CCC(CNCCC(=O)N(C)C)CC4)cc3)n2)ccc1F |
| 146 to 150 °C | COC(=O)c1ccccc1C1=NC(C)(C(C)C)C(=O)N1O (centres undefined) |
| 180 °C | Cc1sc(S(=O)(=O)NC(C)(C)CO)cc1NC(=O)c1cnn2c(C(F)F)cc(-c3ccc(C(F)(F)F)cc3)nc12 |
| 135 to 137 °C | O=C(CN1CCC(Cc2ccc(F)cc2)CC1)Nc1ccc2cn[nH]c2c1 |
| 244 to 245 °C | N#Cc1cnc2cc3c(cc2c1Nc1ccc(F)c(Cl)c1)NCCO3 |
| 107 to 108 °C | CCCc1nc2cccc(C(=S)OC)c2n1Cc1ccc(-c2ccccc2C#N)cc1 |
| 182 to 184 °C | CC(C)(C)OC(=O)NNc1ccc(N2C(=O)C=CC2=O)cn1 |
| 133 to 134 °C | O=CN(O)C1(CS(=O)(=O)c2ccc(Oc3ccc(OC(F)(F)F)cc3)cc2)CCC2(CC1)OCCO2 |
| 107 to 111 °C | COCC#Cc1cc(C(=O)OC)c(N)cc1C(F)(F)F |
| 163 to 164 °C | CCO[C@@H](Cc1ccc(OCCc2nc(-c3ccc(-c4ccccc4)cc3)oc2C)c2ccsc12)C(=O)O |
| 125 to 127 °C | Cc1cc(OCCCC#Cc2ccc(OC(F)(F)F)cc2)ccc1OCC(=O)O |
| 187 °C | Oc1ccc(-c2ccc(O)cc2C#Cc2ccccc2)c(C#Cc2ccccc2)c1 |
| 254 to 255 °C | Cc1cc(-c2nc3cccnn3c2-c2ccnc(NC(N)=O)c2)ccc1F |
| 64 °C | Cc1ccc2cccc(OCc3c(Cl)ccc(S(=O)(=O)N4CCCC4C(=O)NCCCCCO)c3Cl)c2n1 (centres undefined) |
| 198 °C | CNc1cc(F)cc(NC)c1[N+](=O)[O-] |
| 173 to 175 °C | O=C(/C=C/C=C/c1ccc(Br)cc1)NCCCC(=O)NO |
| 110 °C | CN(C)C1=C(c2cccc(C(F)(F)F)c2)C(=O)OC1 |
| 190 °C | CN(c1cccc2cc(-c3nccs3)[nH]c12)S(=O)(=O)c1ccsc1C(=O)N1CCOCC1 |
| 132 to 135 °C | Cc1cccc2c1C[C@H](C(=O)O)[C@@H]2C (relative stereo) |
| 89 to 90 °C | CN1CC(CCN2CCN(c3cc(Cl)cc(Cl)c3)CC2)OC1=O (centres undefined) |
| 270 to 280 °C | Sc1nnc2c3ccccc3cnn12 |
| 173 to 174 °C | COC(=O)c1ccc(NC(=O)c2ccc(Br)nc2)nc1 |

| melting point | Compound |
| --- | --- |
| 53 to 54 °C | Cc1c(C(F)(F)F)noc1N |
| 119 to 121 °C | CCC(C)C[C@@H]1O[C@H](CC(=O)Nc2cccc(OC(F)(F)C(=O)O)c2)C(=O)N(CC(C)(C)CO)c2ccc(Cl)cc21 (some centres undefined) |
| 193 to 195 °C | Cc1cc2c(cc1C)C1(CO2)C(=O)N(C(c2ccccc2)c2ccccc2)c2ccccc21 (centres undefined) |
| 195 to 196 °C | Cc1ccc(-c2nc(CO[C@H]3CCC[C@@H](C(=O)N[C@H](C(=O)O)C(C)C)C3)c(C)o2)cc1 |
| 69 °C | COC(=O)c1ccc(S(C)(=O)=O)c(OS(=O)(=O)C(F)(F)F)c1Cl |
| 80 to 95 °C | CN1CCCC1COc1ccc(-c2cccc(N)n2)c2ccccc12 (centres undefined) |
| 190 to 192 °C | CS(=O)(=O)c1ccc(-c2cnn(-c3ccc(Cl)s3)c(=O)c2-c2ccc(F)cc2)cc1 |
| 152 to 156 °C | N#CN(CCN1CCC(C(=O)c2ccc(F)cc2)CC1)C(=N)NCCN1CCC(C(=O)c2ccc(F)cc2)CC1 |
| 68 to 70 °C | COc1ccccc1CN[C@H]1CCCN(Cc2ccccc2)[C@H]1c1ccccc1 (relative stereo) |
| 129 to 130 °C | Cc1cc(C)c2c(c1C)OC(=O)C2c1ccccc1 (centres undefined) |
| 173 °C | Cc1cc(-c2cc(C(F)(F)F)n3cnc(-c4cccnc4)c3n2)ccc1C(F)(F)F |
| 205 to 207 °C | COC(=O)c1ccc2c(=O)n(CC(C)C)c(CNC(=O)OC(C)(C)C)c(-c3ccc(Cl)cc3)c2c1 |
| 271 to 272 °C | Cc1c2cc(C(=O)O)[nH]c2cc2c1sc1ccccc12 |
| 128 to 130 °C | Fc1cc2c(c(-c3c(Cl)cccc3Cl)c1)OC(CNC1CCC1)C2 (centres undefined) |
| 72 to 73 °C | CCOC(=O)c1ccc(-n2ccnc2C)cc1 |
| 170 °C | O=C(O)COc1cccc2c1CCC(Cc1c[nH]c(C(c3ccccc3)c3ccccc3)n1)C2 (centres undefined) |
| 168 to 170 °C | CC(C)n1nc(-c2sc(C(=O)NCc3ccccn3)nc2-c2cccc(Cl)c2)ccc1=O |
| 139 °C | C=C1C=Cc2cc(C(=O)Nc3ccccc3)ccc2OC1 |
| 201 to 203 °C | CCC(=O)NN(C(C)=O)[C@@H]1c2cc(C#N)ccc2OC(C)(C)[C@H]1O (relative stereo) |
| 128 to 130 °C | CCCCCNC(=O)C(C)Cc1ccc2c(c1)c(Cc1ccc(C(=O)OC)cc1OC)cn2C (centres undefined) |
| 187 to 189 °C | CCS(=O)(=O)Nc1cc(-c2ncnc(OC)c2C#N)c(F)cc1C#N |
| 127 to 128 °C | COc1cc(C)c(C)c2c1CCC2=O |

| Compound | melting point |
| --- | --- |
| CN1C(=O)CC(=O)N(C2CCCCC2)C1=O | 81 to 82 °C |
| CCN1CCC2(c3cccc(OC)c3)Cc3[nH]c(C(=O)Nc4ccccc4)c(C)c3CC2C1 (centres undefined) | 178 to 180 °C |
| CN1Cc2c(C#CC(C)(C)OC(=O)C(C)(C)C)ncn2-c2cccc(Cl)c2C1=O | 132 to 133 °C |
